Consider two compounds from ChEMBL document CHEMBL3259669, “The discovery and SAR of cyclopenta[b]furans as inhibitors of CCR2” (Bioorg Med Chem Lett, 2014).

For one data set, the species on record is Rattus norvegicus. To be noted: in vivo, iv, 2 mg/kg.
Data set [1] is described as follows: in vivo. To be noted: rat.
Data set [2] is described as follows: Plasma concentration in guinea pig at 10 mg/kg. As to conditions: in vivo. Also noted: dose 10 mg/kg. It counts as ADME, organism-based, Cavia porcellus.
The nature of data set [3]: in vivo. To be noted: rat, po, 10 mg/kg.
Data set [4] can be described thus: in vivo. As to conditions: rat, iv, 2 mg/kg.
For data set [5] the following is noted: buffer.
Another data set has as its system Plasma. Put plainly: Plasma concentration in thioglycolate-induced peritoneal leukocyte infiltration in human CCR2 knock-in mouse model at 1 mg/kg, po. It counts as ADME, organism-based. Set-up: dose 1 mg/kg, route oral. To be noted: in vivo.
Data set [6] in a line: in vivo. As to conditions: rat, po, 10 mg/kg. The source holds these as a separate data set.
For data set [7] the following is noted: rat, microsomes.
The conditions of data set [8]: human, microsomes.
The nature of data set [9]: in vivo. As to conditions: rat, plasma.

Each structure is given as a SMILES string.

Usually half-life stands for the time needed for the level to fall by half in the phase considered. Higher therefore signals slow loss. The bioavailability is the share of a dose that reaches the circulation, judged against a reference dose that is usually intravenous. Low values mean little systemic uptake, high ones much systemic uptake. A word on the Vd: it is the apparent volume that relates the amount in the body to the concentration in plasma or blood. The Cmax is the peak of the concentration-time curve. In general, AUC(0-t) refers to exposure summed from dosing to a finite time, without extrapolation to infinity. Higher therefore signals high exposure.

In the data set filed under Rattus norvegicus, `CO[C@@H]1COCC[C@@H]1N[C@@H]1C[C@H]2OCC[C@@]2(C(=O)N2CCc3ncc(C(F)(F)F)cc3C2)C1` displayed a CL of 15.6 mL/mg/kg. In “in vivo [1]”, this compound gave a half-life of 3.8 h. Moreover, the concentration in data set [2] was 23 µM; in the data set with Plasma it was 0.097 µM. Also, the bioavailability in “in vivo [3]” was determined as 94%. The compound also displayed a Vd in the data set “in vivo [4]” of 3.2 L/kg. In addition, in [5], the solubility result is reported as “soluble”. In “in vivo [6]”, this compound returned a Cmax of 2200 ng/mL. The Stability entry in data set [7] and in data set [8] was “Stable” in each case. Also, the area under the curve AUC(0-t) in “in vivo [9]” was found to be 9760 ng·h/mL.

Regarding `CO[C@H]1COCC[C@H]1N[C@@H]1C[C@H]2OCC[C@@]2(C(=O)N2CCc3ncc(C(F)(F)F)cc3C2)C1`, the CL in the data set listed under Rattus norvegicus came to 43.2 mL/mg/kg. The same compound showed a half-life in the data set “in vivo [1]” of 3.5 h. The concentration in [2] is 18 µM; in the data set on Plasma, 0.098 µM. Moreover, the bioavailability in the data set “in vivo [3]” came to 91%. The Vd in “in vivo [4]” was 5 L/kg. In data set [5], the solubility entry is “soluble”. In “in vivo [6]”, this compound gave a Cmax of 632 ng/mL. The Stability entry in data set [7] and in data set [8] was “Stable” each time. Further, the AUC(0-t) in “in vivo [9]” was 3540 ng·h/mL.
